Assay results published in PubChem BioAssay AID256 (DTP/NCI, 2004).
Where “and” joins values, the source holds several entries; their conditions need not be identical. Equal values may be shown once. Toxic doses and inconclusive results are not listed.

Tested on: CD2F1 mice, L1210 leukemia ip, survival T/C
Experiment: NCI In Vivo Anticancer Drug Screen. Data for tumor model L1210 Leukemia (intraperitoneal) in CD2F1 (CDF1) mice
Conditions: endpoint: mean survival time, higher = longer survival
Method in brief: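 Ratio T/C, where T is the treated-group value and C the vehicle-dosed control value, from mice implanted with a transplantable tumor.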

Question: What does the source list for `O=C1c2ccccc2C(=O)c2c(NCCNCCO)ccc(NCCNCCO)c21`?
Answer: T/C (dose: 1.0 mg/kg/injection, schedule: Q01DX005 (iv), vehicle: clinical formulation): 104 % of control; T/C (dose: 2.0 mg/kg/injection, schedule: Q01DX005 (iv), vehicle: saline): 98 % of control; T/C (dose: 2.0 mg/kg/injection, schedule: Q01DX009 (ip), vehicle: saline): 153 % of control; T/C (dose: 2.5 mg/kg/injection, schedule: Q01DX009 (ip), vehicle: saline): 190 % of control; T/C (dose: 2.62 mg/kg/injection, schedule: Q01DX009 (ip), vehicle: saline): 156 % of control; T/C (dose: 4.0 mg/kg/injection, schedule: Q01DX005 (iv), vehicle: clinical formulation): 123 % of control; T/C (dose: 4.0 mg/kg/injection, schedule: Q01DX005 (oral), vehicle: acid diluted with saline): 102 % of control; T/C (dose: 4.0 mg/kg/injection, schedule: Q01DX009 (ip), vehicle: clinical formulation): 157 % of control; T/C (dose: 4.0 mg/kg/injection, schedule: Q01DX009 (ip), vehicle: saline): 271 % of control; T/C (dose: 4.0 mg/kg/injection, schedule: Q04DX003 (ip), vehicle: water): 284 % of control; T/C (dose: 5.0 mg/kg/injection, schedule: Q01DX009 (ip), vehicle: saline): 156 % of control and 186 % of control; T/C (dose: 5.25 mg/kg/injection, schedule: Q01DX009 (ip), vehicle: saline): 159 % of control; T/C (dose: 8.0 mg/kg/injection, schedule: Q01DX005 (iv), vehicle: clinical formulation): 120 % of control; T/C (dose: 8.0 mg/kg/injection, schedule: Q01DX005 (iv), vehicle: saline): 119 % of control; T/C (dose: 8.0 mg/kg/injection, schedule: Q01DX005 (oral), vehicle: acid diluted with saline): 98 % of control; T/C (dose: 8.0 mg/kg/injection, schedule: Q01DX005 (oral), vehicle: saline): 101 % of control; T/C (dose: 8.0 mg/kg/injection, schedule: Q01DX009 (ip), vehicle: clinical formulation): 346 % of control; T/C (dose: 8.0 mg/kg/injection, schedule: Q01DX009 (ip), vehicle: saline): 281 % of control; T/C (dose: 8.0 mg/kg/injection, schedule: Q01DX009 (ip), vehicle: water): 163 % of control and 166 % of control; T/C (dose: 8.0 mg/kg/injection, schedule: Q04DX003 (ip), vehicle: water): 261 % of control; T/C (dose: 10.0 mg/kg/injection, schedule: Q01DX009 (ip), vehicle: saline): 218 % of control and 219 % of control; T/C (dose: 10.5 mg/kg/injection, schedule: Q01DX009 (ip), vehicle: saline): 228 % of control; T/C (dose: 11.7 mg/kg/injection, schedule: Q01DX001 (iv), vehicle: saline): 98 % of control; T/C (dose: 16.0 mg/kg/injection, schedule: Q01DX005 (ip), vehicle: saline): 170 % of control; T/C (dose: 16.0 mg/kg/injection, schedule: Q01DX005 (iv), vehicle: clinical formulation): 164 % of control; T/C (dose: 16.0 mg/kg/injection, schedule: Q01DX005 (oral), vehicle: saline): 101 % of control; T/C (dose: 16.0 mg/kg/injection, schedule: Q01DX009 (ip), vehicle: clinical formulation): 461 % of control; T/C (dose: 16.0 mg/kg/injection, schedule: Q01DX009 (ip), vehicle: saline): 529 % of control; T/C (dose: 16.0 mg/kg/injection, schedule: Q01DX009 (ip), vehicle: water): 153 % of control and 183 % of control; T/C (dose: 19.4 mg/kg/injection, schedule: Q01DX001 (iv), vehicle: saline): 102 % of control; T/C (dose: 20.0 mg/kg/injection, schedule: Q01DX009 (ip), vehicle: saline): 158 % of control and 219 % of control; T/C (dose: 32.0 mg/kg/injection, schedule: Q01DX005 (ip), vehicle: saline): 263 % of control; T/C (dose: 32.0 mg/kg/injection, schedule: Q01DX005 (iv), vehicle: saline): 150 % of control; T/C (dose: 32.0 mg/kg/injection, schedule: Q01DX005 (oral), vehicle: acid diluted with saline): 98 % of control; T/C (dose: 32.0 mg/kg/injection, schedule: Q01DX005 (oral), vehicle: saline): 103 % of control; T/C (dose: 32.0 mg/kg/injection, schedule: Q01DX009 (ip), vehicle: clinical formulation): 96 % of control; T/C (dose: 32.0 mg/kg/injection, schedule: Q01DX009 (ip), vehicle: water): 92 % of control; T/C (dose: 32.0 mg/kg/injection, schedule: Q04DX003 (ip), vehicle: saline): 160 % of control; T/C (dose: 32.4 mg/kg/injection, schedule: Q01DX001 (ip), vehicle: saline): 158 % of control and 160 % of control; T/C (dose: 32.4 mg/kg/injection, schedule: Q01DX001 (iv), vehicle: saline): 117 % of control; T/C (dose: 40.0 mg/kg/injection, schedule: Q01DX009 (ip), vehicle: saline): 91 % of control and 96 % of control; T/C (dose: 42.0 mg/kg/injection, schedule: Q01DX009 (ip), vehicle: saline): 90 % of control; T/C (dose: 54.0 mg/kg/injection, schedule: Q01DX001 (ip), vehicle: saline): 150 % of control and 160 % of control; T/C (dose: 64.0 mg/kg/injection, schedule: Q01DX005 (ip), vehicle: saline): 89 % of control
